In EP0435794A1, “Alkenyl- or heteroaryl thio, sulfone, sulfoxy herbicides” (RHONE-POULENC AGROCHIMIE, priority 1989, dated 1991):

Columns and labels:
Type in all cases: in vivo
Alopecurus myosuroides = assay: Exemple C: selectivity test in field crops, pre-emergence (weed); conditions: 24 days
Text: (§1) Exemple C - Essai de sélectivité en grandes cultures avec application herbicide, en prélevée des espèces végétales
(§2) Dans des pots de 7 X 7 X 8 cm remplis de terre agricole légère, on sème un nombre de graines déterminé en fonction de l'espèce végétale et de la grosseur de la graine.
(§3) On recouvre ensuite les graines d'une couche de terre d'environ 3 mm d'épaisseur.
(§4) Les pots sont alors traités par pulvérisation de bouillie en quantité correspondant à une dose volumique d'application de 500 l/ha et contenant la matière active à la concentration désirée.
(§5) La bouillie a été préparée de la même manière qu'à l'exemple A.
(§6) Les pots traités sont ensuite placés dans des bacs destinés à recevoir l'eau d'arrosage, en subirrigation, et maintenus pendant 24 jours à température ambiante sous 70 % d'humidité relative.
(§7) Le relevé est effectué de la façon suivante:
(§8) Au bout de 24 jours, on mesure un pourcentage (D) de destruction du nombre de pieds dans le pot traité par rapport au nombre de plantes dans les pots non traités (témoin). On mesure, sur les plantes traitées restantes, le pourcentage de réduction de taille (RT) par rapport aux plantes témoins.
(§9) Le pourcentage de volume foliaire non détruit par le produit est donc donné par la formule: ([100-D] X [100-RT])/(100)= A [formula]
(§10) Cette valeur A est transformée en notation de 0 à 5 selon l'échelle suivante:
(§11) Ainsi, un produit est jugé comme sélectif vis à vis de la culture lorsque la valeur A notée est de 0 ou 1.
(§12) Les résultats obtenus sont présentés dans l'exemple C pour des doses d'application de 500, 1000, 2000 ou 4000 g de matière active par hectare selon les produits.
(§13) Les espèces végétales utilisées dans cet exemple sont: […]

Digitaria sanguinalis = assay: as above; conditions: 24 days
Text: as §1, §2, §3, §4, §5, §6, §7, §8, §9, §10, §11, §12, §13

Panicum milicaeum = assay: as above; conditions: 24 days
Text: as §1, §2, §3, §4, §5, §6, §7, §8, §9, §10, §11, §12, §13

Setaria faberii = assay: as above; conditions: 24 days
Text: as §1, §2, §3, §4, §5, §6, §7, §8, §9, §10, §11, §12, §13

Sorghum halepense = assay: as above; conditions: 24 days
Text: as §1, §2, §3, §4, §5, §6, §7, §8, §9, §10, §11, §12, §13

blé = assay: Exemple C: selectivity test in field crops, pre-emergence (crop); conditions: 24 days, 0 or 1 = selective; also: ranges in brackets are in %
Text: as §1, §2, §3, §4, §5, §6, §7, §8, §9, §10, §11, §12
(§14) Les espèces végétales utilisées dans cet exemple sont:
(§15) Comme on peut le voir sur le tableau de résultats de cet exemple C, de nombreux produits présentent une excellente activité antigraminée de prélevée tout en montrant une excellente sélectivité pour 1 ou 2 ou 3 ou 4 des 4 cultures testées = blé, maïs, riz, soja.

maïs = assay: as above; conditions: 24 days, 0 or 1 = selective; also: ranges in brackets are in %
Text: as §1, §2, §3, §4, §5, §6, §7, §8, §9, §10, §11, §12, §14, §15

riz = assay: as above; conditions: 24 days, 0 or 1 = selective; also: ranges in brackets are in %
Text: as §1, §2, §3, §4, §5, §6, §7, §8, §9, §10, §11, §12, §14, §15

soja = assay: as above; conditions: 24 days, 0 or 1 = selective; also: ranges in brackets are in %
Text: as §1, §2, §3, §4, §5, §6, §7, §8, §9, §10, §11, §12, §14, §15

Echinochloa crus-galli = assay: Exemple C: selectivity test in field crops, pre-emergence (weed); conditions: 24 days
Text: as §1, §2, §3, §4, §5, §6, §7, §8, §9, §10, §11, §12, §13

Compound | Notation de l'activité herbicide ALO (Alopecurus myosuroides; dose 1 Kg m.a./ha) | Notation de l'activité herbicide DIG (Digitaria sanguinalis; dose 1 Kg m.a./ha) | Notation de l'activité herbicide PAN (Panicum milicaeum; dose 1 Kg m.a./ha) | Notation de l'activité herbicide SET (Setaria faberii; dose 1 Kg m.a./ha) | Notation de l'activité herbicide SOR (Sorghum halepense; dose 1 Kg m.a./ha) | Notation de l'activité herbicide TRZ (blé; dose 1 Kg m.a./ha) | Notation de l'activité herbicide ZEA (maïs; dose 1 Kg m.a./ha) | Notation de l'activité herbicide ORY (riz; dose 1 Kg m.a./ha) | Notation de l'activité herbicide GLY (soja; dose 1 Kg m.a./ha) | Notation de l'activité herbicide ECh (Echinochloa crus-galli; dose 1 Kg m.a./ha) | other results
Cc1ccsc1S(=O)(=O)CC(O)(CBr)c1ccccc1 (stereo not shown) [compound 63] | 3 (30 à 50) | 5 (O à 10) | 4 (10 à 30) | 5 (O à 10) | 5 (O à 10) | 3 (30 à 50) | 2 (50 à 70) | 4 (10 à 30) | 0 (90 à 100) | – | –
C=C(CS(=O)(=O)c1sc(C)nc1C)c1cc(C)cc(C)c1 [compound 46] | 5 (O à 10) | 5 (O à 10) | 5 (O à 10) | 1 (70 à 90) | 1 (70 à 90) | 0 (90 à 100) | 0 (90 à 100) | 0 (90 à 100) | 0 (90 à 100) | 4 (10 à 30) | –
C=C(CS(=O)(=O)/C=C/C)c1ccccc1 [compound 70, (E)-2-phényl 1-(1-propénylsulfonyl)2-propène] | – | – | – | – | – | – | – | – | – | – | Notation de l'activité herbicide ALO (Alopecurus myosuroides; dose 2 Kg m.a./ha): 4 (10 à 30); Notation de l'activité herbicide ECh (Echinochloa crus-galli; dose 2 Kg m.a./ha): 5 (O à 10); Notation de l'activité herbicide PAN (Panicum milicaeum; dose 2 Kg m.a./ha): 3 (30 à 50); Notation de l'activité herbicide SET (Setaria faberii; dose 2 Kg m.a./ha): 3 (30 à 50); Notation de l'activité herbicide SOR (Sorghum halepense; dose 2 Kg m.a./ha): 5 (O à 10); Notation de l'activité herbicide TRZ (blé; dose 2 Kg m.a./ha): 2 (50 à 70); Notation de l'activité herbicide ZEA (maïs; dose 2 Kg m.a./ha): 0 (90 à 100); Notation de l'activité herbicide ORY (riz; dose 2 Kg m.a./ha): 1 (70 à 90); Notation de l'activité herbicide GLY (soja; dose 2 Kg m.a./ha): 0 (90 à 100)
C=C(CS(=O)(=O)c1cc(C)sc1C)c1ccccc1 [compound 51] | 4 (10 à 30) | 5 (O à 10) | 4 (10 à 30) | 4 (10 à 30) | 4 (10 à 30) | 0 (90 à 100) | 0 (90 à 100) | 0 (90 à 100) | 0 (90 à 100) | 4 (10 à 30) | –
C=C(CS(=O)(=O)c1sc(C)nc1C)c1cccc(F)c1 [compound 45] | 5 (O à 10) | 4 (10 à 30) | 5 (O à 10) | 3 (30 à 50) | 5 (O à 10) | 1 (70 à 90) | 0 (90 à 100) | 0 (90 à 100) | 0 (90 à 100) | 5 (O à 10) | –
O=S(=O)(CC(O)(CBr)c1cc(Cl)cc(Cl)c1)c1cccs1 (stereo not shown) [compound 62] | – | 5 (O à 10) | 4 (10 à 30) | 4 (10 à 30) | 2 (50 à 70) | 2 (50 à 70) | 1 (70 à 90) | 2 (50 à 70) | 0 (90 à 100) | 5 (O à 10) | –
O=S(=O)(CC(O)(CBr)c1cccc(F)c1)c1sccc1Cl (stereo not shown) [compound 67] | – | – | – | – | – | – | – | – | – | – | Notation de l'activité herbicide ALO (Alopecurus myosuroides; dose 0.5 Kg m.a./ha): 2 (50 à 70); Notation de l'activité herbicide DIG (Digitaria sanguinalis; dose 0.5 Kg m.a./ha): 5 (O à 10); Notation de l'activité herbicide ECh (Echinochloa crus-galli; dose 0.5 Kg m.a./ha): 4 (10 à 30); Notation de l'activité herbicide PAN (Panicum milicaeum; dose 0.5 Kg m.a./ha): 4 (10 à 30); Notation de l'activité herbicide SET (Setaria faberii; dose 0.5 Kg m.a./ha): 4 (10 à 30); Notation de l'activité herbicide SOR (Sorghum halepense; dose 0.5 Kg m.a./ha): 1 (70 à 90); Notation de l'activité herbicide TRZ (blé; dose 0.5 Kg m.a./ha): 0 (90 à 100); Notation de l'activité herbicide ZEA (maïs; dose 0.5 Kg m.a./ha): 1 (70 à 90); Notation de l'activité herbicide ORY (riz; dose 0.5 Kg m.a./ha): 0 (90 à 100); Notation de l'activité herbicide GLY (soja; dose 0.5 Kg m.a./ha): 0 (90 à 100)
